From patent US6143724A, “2-fluorofucosyl-N-aroylglucosamine derivatives, intermediates, therefor, and processes for producing these” (Daikin Industries, Ltd., priority 1997, dated 2000)
“Also recorded” adds a separate entry of the source.

Legend:
[1] = tested on: α-fucosidase; assay: Evaluation of metabolic stability of sialyl Lewis X derivatives to α-fucosidase (TLC spot densitometry); type: in vitro ADME; settings: for Spot Area: 28° C.
Method: The metabolic stability of various sialyl Lewis X derivatives to α-fucosidase was assayed. The various sialyl Lewis X derivatives which were used in Example [(2F-Fuc-t-Bu) SLcXOSE], Comparative Example 1 (SLeX Ganglioside), and Comparative Example 2 [(2F-Fuc) SLeX Ganglioside] are shown in the following structural formulas. Herein, the compound used in the present Example is the compound represented by said structural formula (β) obtained in said Example 11. [drawing 48] After […] of each sialyl Lewis X derivative was dissolved in 0.1 mL of dist. water, 0.1 mL of ammonium sulfate suspension of α-fucosidase (made by Wako Chemicals: 2 units or more/mg protein) was added to this solution at 28° C., then the reaction solution was charged on a silica gel TLC plate 5715 (made by Merck Company) at every reaction time course. After developing up to 2 cm using developing solvents (n-butanol:acetic acid:water=8:5:4), this was soaked in an aqueous solution of molybdenum phosphate/phosphoric acid/sulfuric acid mixture, and heated to color. The Rf values (moving ratio) on the TLC plate of products decomposed by α-fucosidase and each sialyl Lewis X derivative (substrate) were as follows.
Further, it was confirmed from the mass spectrum that each sialyl Lewis X derivative is decomposed by α-fucosidase, and the corresponding derivatives from which the fucose moiety was removed were produced as respective decomposed products. Further, as shown in following Table 1, the residual rates of the individual sialyl Lewis X derivatives were calculated from each spot area (hereinafter, sometimes referred to merely as the area) after each reaction time course as follows. Herein, each area was measured using a densitometer (software: VILBER LOURMAT BIOID V 6.31a): Residual rate of sialyl Lewis X derivative=(substrate area)/(total area of substrate area plus decomposed product area).

[2] = molecular target: T1, P selectin (Homo sapiens, UniProt P16109); settings: H. Kondo et al., J. Med. Chem. 39, 1339 (1996); cited from earlier work
T1 sequence (P16109 42-830): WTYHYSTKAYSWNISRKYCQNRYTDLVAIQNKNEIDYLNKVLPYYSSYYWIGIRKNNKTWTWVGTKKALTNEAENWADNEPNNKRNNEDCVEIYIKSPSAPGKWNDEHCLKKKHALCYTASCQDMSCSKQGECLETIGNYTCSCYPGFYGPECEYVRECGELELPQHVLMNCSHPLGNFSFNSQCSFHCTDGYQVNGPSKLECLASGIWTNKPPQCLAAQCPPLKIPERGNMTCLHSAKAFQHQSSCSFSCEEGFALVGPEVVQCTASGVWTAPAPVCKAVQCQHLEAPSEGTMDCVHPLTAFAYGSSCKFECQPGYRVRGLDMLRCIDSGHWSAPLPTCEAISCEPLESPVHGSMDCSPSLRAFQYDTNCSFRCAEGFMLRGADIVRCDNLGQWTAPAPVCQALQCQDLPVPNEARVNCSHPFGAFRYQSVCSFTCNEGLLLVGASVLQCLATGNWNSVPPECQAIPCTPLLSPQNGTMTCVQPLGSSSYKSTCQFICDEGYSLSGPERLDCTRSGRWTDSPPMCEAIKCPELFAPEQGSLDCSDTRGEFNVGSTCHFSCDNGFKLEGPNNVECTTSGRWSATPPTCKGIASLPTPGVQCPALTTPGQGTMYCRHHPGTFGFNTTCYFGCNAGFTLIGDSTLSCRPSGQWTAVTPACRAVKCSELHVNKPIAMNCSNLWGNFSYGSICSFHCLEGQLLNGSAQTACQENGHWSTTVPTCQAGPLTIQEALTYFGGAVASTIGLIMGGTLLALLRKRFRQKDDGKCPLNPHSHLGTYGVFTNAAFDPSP

[3] = tested on: acute inflammation of the lung induced by cobra toxin; settings: rats, Mulligan et al., Nature 364, 149 (1993); cited from earlier work
[4] = tested on: selectins; settings: cited from earlier work
[5] = time course 0 min after addition of α-fucosidase
[6] = time course 0.5 min after addition of α-fucosidase, * = color on the TLC completely disappeared
[7] = time course 1.0 min after addition of α-fucosidase

| SMILES | stability against / resistance to decomposition by α-fucosidase (in words, from FIG. 1) [1] | Spot Area [1, 5] [cm^2] | Spot Area [1, 6] [cm^2] | Spot Area [1, 7] [cm^2] | also measured |
| --- | --- | --- | --- | --- | --- |
| CCCCCCCCCCCCC/C=C/[C@@H](O)[C@H](CO[C@@H]1O[C@H](CO)[C@@H](O[C@@H]2O[C@H](CO)[C@H](O)[C@H](O[C@@H]3O[C@H](CO)[C@@H](O[C@@H]4O[C@H](CO)[C@H](O)[C@H](O[C@]5(C(=O)O)C[C@H](O)[C@@H](NC(C)=O)[C@H]([C@H](O)[C@H](O)CO)O5)[C@H]4O)[C@H](O[C@@H]4O[C@@H](C)[C@@H](O)[C@@H](O)[C@@H]4O)[C@H]3NC(C)=O)[C@H]2O)[C@H](O)[C@H]1O)NC(=O)CCCCCCCCCCCCCCCCC [Comparative Example 1] | rapid decomposition | 1.0 | 0.0 | – | – |
| CC(=O)NC1C(O)CC(OC2C(O)C(CO)OC(OC3C(CO)OC(OC4C(O)C(CO)OC(OC5C(CO)OC(OCC[Si](C)(C)C)C(O)C5O)C4O)C(NC(=O)c4ccc(C(C)(C)C)cc4)C3OC3OC(C)C(O)C(O)C3F)C2O)(C(=O)O)OC1C(O)C(O)CO [Example, 2-(trimethylsilyl)ethyl O-(5-acetamide-3,5-dideoxy-D-glycero-α-D-galacto-2-nunolopyranosylonic acid)-(2→3)-O-β-D-galactopyranosyl-(1→4)-O-[(2-deoxy-2-fluoro-α-L-fucopyranosyl)-(1→3)]-O-[(2-deoxy-2-(4-t-butylbenzamide)-β-D-glucopyranosyl)]-(1→3)-(O-β-D-galactopyranosyl)-(1→4)-β-D-glucopyranoside] | excellent in stability against α-fucosidase; also recorded: strongly resistant to decomposition reaction | 1.0 | – | 0.73 | Spot Area ([1]; time course 2.0 min after addition of α-fucosidase): 0.44 cm^2 |
| CC(=O)NC1COC(CO)C(OC2OC(CO)C(O)C(OC3(C(=O)O)CC(O)C(NC(C)=O)C(C(O)C(O)CO)O3)C2O)C1OC1OC(C)C(O)C(O)C1O (centres unmarked) [structural formula (V)] | – | – | – | – | adhesion-inhibitory activity to P selectin relative to the sialyl Lewis X glycoside of Structural Formula (III) [2]: 20 times |
| CC(=O)NC1C(O)CC(OC2C(O)C(CO)OC(OC3C(CO)OC(O)C(NC(C)=O)C3OC3OC(C)C(O)C(O)C3O)C2O)(C(=O)O)OC1C(O)C(O)CO (centres unmarked) [structural formula (III)] | – | – | – | – | acute inflammation of the lung [3]: reduced |
| CCCCCCCCCCCCCCC(CCCCCCCCCCCCCC)CO[C@@H]1O[C@H](CO)[C@@H](O[C@@H]2O[C@H](CO)[C@H](O)[C@H](OS(=O)(=O)O)[C@H]2O)[C@H](O[C@@H]2O[C@@H](C)[C@@H](O)[C@@H](O)[C@@H]2O)[C@H]1NC(C)=O [GSC-150] | – | – | – | – | selectin adhesion-inhibitory activity (in words) [4]: powerful selectin blocker |
| CCCCCCCCCCCCC/C=C/[C@@H](O)[C@H](CO[C@@H]1O[C@H](CO)[C@@H](O[C@@H]2O[C@H](CO)[C@H](O)[C@H](O[C@@H]3O[C@H](CO)[C@@H](O[C@@H]4O[C@H](CO)[C@H](O)[C@H](O[C@]5(C(=O)O)C[C@H](O)[C@@H](NC(C)=O)[C@H]([C@H](O)[C@H](O)CO)O5)[C@H]4O)[C@H](O[C@@H]4O[C@@H](C)[C@@H](O)[C@@H](O)[C@@H]4F)[C@H]3NC(C)=O)[C@H]2O)[C@H](O)[C@H]1O)NC(=O)CCCCCCCCCCCCCCCCCCCCCCC [Comparative Example 2] | weak resistance to decomposition | 1.0 | 0.36 | 0.30 | – |
